# Laboratory results taken from patent US8703961B2, “Thiazole derivatives for the treatment of diseases such as cancer” (Merck Patent GmbH, priority 2009, dated 2014).
# Tests used:
# TBK1 = target: T1, TBK1 (Homo sapiens, UniProt Q9UHD2); assay: filter binding kinase assay; format: biochemical; details: derived from % inhibition at 1 μM
# T1 construct: purchased
# T1 sequence (Q9UHD2 1-729): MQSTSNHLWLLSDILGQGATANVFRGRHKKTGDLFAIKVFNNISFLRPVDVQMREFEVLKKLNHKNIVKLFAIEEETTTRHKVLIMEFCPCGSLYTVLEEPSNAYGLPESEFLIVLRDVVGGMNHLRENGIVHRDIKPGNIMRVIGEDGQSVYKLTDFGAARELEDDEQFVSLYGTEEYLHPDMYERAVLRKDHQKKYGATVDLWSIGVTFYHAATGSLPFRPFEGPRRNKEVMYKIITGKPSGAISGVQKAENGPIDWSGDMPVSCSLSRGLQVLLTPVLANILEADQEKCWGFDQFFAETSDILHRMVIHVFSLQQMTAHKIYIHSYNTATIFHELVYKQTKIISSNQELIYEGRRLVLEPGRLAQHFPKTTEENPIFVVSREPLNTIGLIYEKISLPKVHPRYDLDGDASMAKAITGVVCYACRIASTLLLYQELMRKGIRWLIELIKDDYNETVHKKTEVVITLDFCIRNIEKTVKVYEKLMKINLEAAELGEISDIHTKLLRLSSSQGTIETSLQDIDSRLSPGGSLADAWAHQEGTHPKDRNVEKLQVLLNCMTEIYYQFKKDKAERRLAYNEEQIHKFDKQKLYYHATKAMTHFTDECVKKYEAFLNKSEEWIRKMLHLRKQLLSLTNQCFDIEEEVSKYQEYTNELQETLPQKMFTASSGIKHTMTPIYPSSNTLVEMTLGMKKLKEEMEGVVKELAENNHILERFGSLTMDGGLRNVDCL
# Procedure: All kinase assays were carried out using the Multidrop 384 from Thermo-Fisher at room temperature in a total assay volume of 25.5 μl. 15 μl of an enzyme mix comprising enzyme and substrate in buffer are added to the test batch comprising either 0.5 μl of test substance, DMSO control or empty container. Test substances are pre-incubated in the presence of the enzyme and substrate for 5 minutes before the reaction is initiated by addition of 10 μl of ATP (concentration kinase-dependent of […]). The reaction is terminated by addition of 5 μl of orthophosphoric acid (50 mM). The test containers are then transferred onto P81 Unifilter plates by means of a “Packard Harvester” and dried in air. The dry Unifilter plates are sealed after the addition of MicroScint O, and the radioactivity is determined in a Packard Topcount NXT.
SMILES,melting point [°C],IC50 (TBK1) [nM]
"CC(C)(C)OC(=O)Nc1ncsc1C#Cc1ccc(F)cc1 [Compound A15, tert-butyl N-{5-[2-(4-fluorophenyl)ethynyl]-1,3-thiazol-4-yl}carbamate]",139 to 144,–
Nc1ncc(-c2cnn(C3CCNCC3)c2)cc1-c1nc2[nH]c(-c3ccc(F)cc3)cc2s1 [Compound A31],–,10 to 1000
